Measured values reported in PubChem BioAssay AID248 (DTP/NCI, 2004).
Values joined by “and” are separate entries in the source; they are usually repeats but may differ in a detail not shown here. Identical values can stand only once. Toxic doses and inconclusive results are not listed.

System: L1210 leukemia ip in BDF1 mice, survival T/C
Assay: NCI In Vivo Anticancer Drug Screen. Data for tumor model L1210 Leukemia (intraperitoneal) in B6D2F1 (BDF1) mice
Conditions: endpoint: mean survival time, higher = longer survival
Procedure, shortened: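 Tumor was transplanted into mice, which were then dosed with test compound or vehicle alone. Survival was recorded for each group, and the treated figure was expressed relative to the control figure.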

[1] = dose: 100.0 mg/kg/injection, schedule: Q04DX003 (ip), vehicle: saline
[2] = dose: 200.0 mg/kg/injection, schedule: Q04DX003 (ip), vehicle: saline
[3] = dose: 400.0 mg/kg/injection, schedule: Q04DX003 (ip), vehicle: saline
[4] = dose: 100.0 mg/kg/injection, schedule: Q01DX001 (ip), vehicle: other
[5] = dose: 200.0 mg/kg/injection, schedule: Q01DX001 (ip), vehicle: other
[6] = dose: 400.0 mg/kg/injection, schedule: Q01DX001 (ip), vehicle: other
[7] = dose: 100.0 mg/kg/injection, schedule: Q04DX002 (ip), vehicle: Klucel (hydroxypropylcellulose) (HPC)
[8] = dose: 100.0 mg/kg/injection, schedule: Q04DX003 (ip), vehicle: saline with Tween-80
[9] = dose: 200.0 mg/kg/injection, schedule: Q04DX003 (ip), vehicle: saline with Tween-80
[10] = dose: 400.0 mg/kg/injection, schedule: Q04DX003 (ip), vehicle: saline with Tween-80
[11] = dose: 100.0 mg/kg/injection, schedule: Q04DX003 (ip), vehicle: Klucel (hydroxypropylcellulose) (HPC)
[12] = dose: 400.0 mg/kg/injection, schedule: Q04DX003 (ip), vehicle: Klucel (hydroxypropylcellulose) (HPC)
[13] = dose: 100.0 mg/kg/injection, schedule: Q01DX001 (ip), vehicle: saline
[14] = dose: 200.0 mg/kg/injection, schedule: Q01DX001 (ip), vehicle: saline
[15] = dose: 400.0 mg/kg/injection, schedule: Q01DX001 (ip), vehicle: saline

## CCOC(/C=C/c1ccccc1)OCC
[1]
  T/C: 93 % of control
[2]
  T/C: 93 % of control
[3]
  T/C: 98 % of control

## COC(=O)C(Nc1ccc([N+](=O)[O-])cc1[N+](=O)[O-])C(C)O (stereo unspecified)
[4]
  T/C: 104 % of control
[5]
  T/C: 101 % of control
[6]
  T/C: 111 % of control

## CCCCCCCCCCCCCCCNC1=C(OC)C(=O)C(NCCCCCCCCCCCCCCC)=C(OC)C1=O
[4]
  T/C: 90 % of control
[5]
  T/C: 93 % of control
[6]
  T/C: 96 % of control

## Cc1cc(OC(=O)Nc2ccc(Cl)cc2)ccc1Cl
[4]
  T/C: 103 % of control
dose: 100.0 mg/kg/injection, schedule: Q01DX009 (ip), vehicle: other
  T/C: 93 % of control and 100 % of control
[7]
  T/C: 106 % of control
dose: 100.0 mg/kg/injection, schedule: Q04DX002 (ip), vehicle: other
  T/C: 95 % of control and 91 % of control
dose: 100.0 mg/kg/injection, schedule: Q04DX003 (ip), vehicle: other
  T/C: 96 % of control
[5]
  T/C: 96 % of control
dose: 200.0 mg/kg/injection, schedule: Q01DX009 (ip), vehicle: other
  T/C: 93 % of control and 95 % of control
dose: 200.0 mg/kg/injection, schedule: Q04DX002 (ip), vehicle: Klucel (hydroxypropylcellulose) (HPC)
  T/C: 117 % of control
dose: 200.0 mg/kg/injection, schedule: Q04DX002 (ip), vehicle: other
  T/C: 100 % of control and 91 % of control
dose: 200.0 mg/kg/injection, schedule: Q04DX003 (ip), vehicle: other
  T/C: 91 % of control
[6]
  T/C: 96 % of control
dose: 400.0 mg/kg/injection, schedule: Q01DX009 (ip), vehicle: other
  T/C: 92 % of control and 86 % of control
dose: 400.0 mg/kg/injection, schedule: Q04DX002 (ip), vehicle: Klucel (hydroxypropylcellulose) (HPC)
  T/C: 95 % of control
dose: 400.0 mg/kg/injection, schedule: Q04DX002 (ip), vehicle: other
  T/C: 91 % of control and 92 % of control
dose: 400.0 mg/kg/injection, schedule: Q04DX003 (ip), vehicle: other
  T/C: 95 % of control

## Fc1ccc(NC2(c3nnnn3C3CCCCC3)CCNCC2)cc1
dose: 6.25 mg/kg/injection, schedule: Q01DX001 (ip), vehicle: saline with Tween-80
  T/C: 102 % of control
dose: 12.5 mg/kg/injection, schedule: Q01DX001 (ip), vehicle: saline with Tween-80
  T/C: 100 % of control
dose: 25.0 mg/kg/injection, schedule: Q01DX001 (ip), vehicle: saline with Tween-80
  T/C: 98 % of control

## CC(C)N(CCO)CC1C(c2ccccc2)C1c1ccccc1 (stereo unspecified)
dose: 25.0 mg/kg/injection, schedule: Q04DX002 (ip), vehicle: Klucel (hydroxypropylcellulose) (HPC)
  T/C: 97 % of control
dose: 50.0 mg/kg/injection, schedule: Q04DX002 (ip), vehicle: Klucel (hydroxypropylcellulose) (HPC)
  T/C: 100 % of control
[7]
  T/C: 97 % of control

## CC1(C)OC2C(C(=O)N(CCO)CCO)OC(n3cnc4c(N)ncnc43)C2O1 (stereo unspecified)
dose: 75.0 mg/kg/injection, schedule: Q01DX001 (ip), vehicle: saline
  T/C: 102 % of control
dose: 75.0 mg/kg/injection, schedule: Q04DX003 (ip), vehicle: saline
  T/C: 106 % of control
dose: 150.0 mg/kg/injection, schedule: Q01DX001 (ip), vehicle: saline
  T/C: 104 % of control
dose: 150.0 mg/kg/injection, schedule: Q04DX003 (ip), vehicle: saline
  T/C: 106 % of control
dose: 300.0 mg/kg/injection, schedule: Q01DX001 (ip), vehicle: saline
  T/C: 101 % of control
dose: 300.0 mg/kg/injection, schedule: Q04DX003 (ip), vehicle: saline
  T/C: 107 % of control

## COc1ccc(Nc2nc(N)nc(CNc3ccc(Cl)cc3)n2)cc1
[8]
  T/C: 98 % of control
[9]
  T/C: 103 % of control
[10]
  T/C: 98 % of control

## CN(C)c1ccc(CNc2cccc(Cl)c2Cl)cc1
[11]
  T/C: 94 % of control
dose: 200.0 mg/kg/injection, schedule: Q04DX003 (ip), vehicle: Klucel (hydroxypropylcellulose) (HPC)
  T/C: 96 % of control
[12]
  T/C: 97 % of control

## O=[N+]([O-])c1ccccc1SNc1ccccc1
dose: 100.0 mg/kg/injection, schedule: Q01DX009 (ip), vehicle: Klucel (hydroxypropylcellulose) (HPC)
  T/C: 102 % of control
[11]
  T/C: 96 % of control
dose: 200.0 mg/kg/injection, schedule: Q01DX009 (ip), vehicle: Klucel (hydroxypropylcellulose) (HPC)
  T/C: 105 % of control
dose: 400.0 mg/kg/injection, schedule: Q01DX009 (ip), vehicle: Klucel (hydroxypropylcellulose) (HPC)
  T/C: 107 % of control
[12]
  T/C: 103 % of control

## CCCCCCN(CCCCCC)[N+](=O)[O-]
[4]
  T/C: 96 % of control
[5]
  T/C: 100 % of control
[6]
  T/C: 96 % of control

## CN(C)c1ccc(C(=O)O)cn1
dose: 100.0 mg/kg/injection, schedule: Q01DX009 (ip), vehicle: saline with Tween-80
  T/C: 96 % of control
[1]
  T/C: 100 % of control
dose: 200.0 mg/kg/injection, schedule: Q01DX009 (ip), vehicle: saline with Tween-80
  T/C: 105 % of control
[2]
  T/C: 100 % of control
dose: 400.0 mg/kg/injection, schedule: Q01DX009 (ip), vehicle: saline with Tween-80
  T/C: 102 % of control
[3]
  T/C: 100 % of control

## Cc1cnc(Cl)c(Br)c1
[8]
  T/C: 100 % of control
[9]
  T/C: 102 % of control
[10]
  T/C: 98 % of control

## O=NN(CCCl)C(=O)Nc1ccc(-c2ccc(NC(=O)N(CCCl)N=O)cc2)cc1
dose: 8.0 mg/kg/injection, schedule: Q01DX001 (ip), vehicle: carboxymethylcellulose (CMC)
  T/C: 116 % of control
dose: 16.0 mg/kg/injection, schedule: Q01DX001 (ip), vehicle: carboxymethylcellulose (CMC)
  T/C: 118 % of control
dose: 250.0 mg/kg/injection, schedule: Q01DX001 (ip), vehicle: carboxymethylcellulose (CMC)
  T/C: 161 % of control
dose: 375.0 mg/kg/injection, schedule: Q01DX001 (ip), vehicle: carboxymethylcellulose (CMC)
  T/C: 163 % of control
dose: 500.0 mg/kg/injection, schedule: Q01DX001 (ip), vehicle: carboxymethylcellulose (CMC)
  T/C: 190 % of control
dose: 750.0 mg/kg/injection, schedule: Q01DX001 (ip), vehicle: carboxymethylcellulose (CMC)
  T/C: 229 % of control
dose: 1000.0 mg/kg/injection, schedule: Q01DX001 (ip), vehicle: carboxymethylcellulose (CMC)
  T/C: 229 % of control
dose: 1500.0 mg/kg/injection, schedule: Q01DX001 (ip), vehicle: carboxymethylcellulose (CMC)
  T/C: 232 % of control
dose: 2000.0 mg/kg/injection, schedule: Q01DX001 (ip), vehicle: carboxymethylcellulose (CMC)
  T/C: 168 % of control
dose: 2500.0 mg/kg/injection, schedule: Q01DX001 (ip), vehicle: carboxymethylcellulose (CMC)
  T/C: 223 % of control

## O=C(CCN1CCCCC1)C(O)(c1ccccc1)c1ccccc1
dose: 75.0 mg/kg/injection, schedule: Q01DX001 (ip), vehicle: other
  T/C: 103 % of control
dose: 150.0 mg/kg/injection, schedule: Q01DX001 (ip), vehicle: other
  T/C: 97 % of control
dose: 300.0 mg/kg/injection, schedule: Q01DX001 (ip), vehicle: other
  T/C: 104 % of control

## Cc1ccc(S(=O)(=O)OCC(c2ccccc2)C(F)(F)F)cc1 (stereo unspecified)
dose: 100.0 mg/kg/injection, schedule: Q01DX001 (ip), vehicle: saline with Tween-80
  T/C: 94 % of control
dose: 200.0 mg/kg/injection, schedule: Q01DX001 (ip), vehicle: saline with Tween-80
  T/C: 100 % of control
dose: 400.0 mg/kg/injection, schedule: Q01DX001 (ip), vehicle: saline with Tween-80
  T/C: 101 % of control

## O=c1cc([N+](=O)[O-])n(O)cc1[N+](=O)[O-]
[13]
  T/C: 102 % of control
[14]
  T/C: 108 % of control
[15]
  T/C: 102 % of control

## O=C(CCCC(=O)N/N=C/c1ccc([N+](=O)[O-])cc1)N/N=C\c1ccc([N+](=O)[O-])cc1
dose: 50.0 mg/kg/injection, schedule: Q01DX001 (ip), vehicle: saline
  T/C: 93 % of control
[13]
  T/C: 100 % of control
[14]
  T/C: 103 % of control
[15]
  T/C: 103 % of control

## CC1CN(CCCCO)C(=O)NC1=O (stereo unspecified)
[13]
  T/C: 90 % of control
[14]
  T/C: 88 % of control

## CCOCCN1C=C/C(=C/C=C/c2cc[n+](CCOCC)c3ccccc23)c2ccccc21
dose: 0.31 mg/kg/injection, schedule: Q04DX003 (ip), vehicle: saline
  T/C: 98 % of control
dose: 0.45 mg/kg/injection, schedule: Q01DX009 (ip), vehicle: saline
  T/C: 104 % of control
dose: 0.62 mg/kg/injection, schedule: Q04DX003 (ip), vehicle: saline
  T/C: 121 % of control
dose: 0.9 mg/kg/injection, schedule: Q01DX009 (ip), vehicle: saline
  T/C: 118 % of control
dose: 1.25 mg/kg/injection, schedule: Q01DX001 (ip), vehicle: saline
  T/C: 96 % of control
dose: 1.25 mg/kg/injection, schedule: Q04DX003 (ip), vehicle: saline
  T/C: 111 % of control
dose: 1.8 mg/kg/injection, schedule: Q04DX003 (ip), vehicle: saline
  T/C: 98 % of control
